Measurements as given in ChEMBL document CHEMBL1129773, “Novel 1,2-diarylcyclobutenes: Selective and orally active cox-2 inhibitors” (Bioorg Med Chem Lett, 1996).

Columns and labels:
[1] = target: Prostaglandin G/H synthase 1 (Homo sapiens, UniProt P23219)
[2] = target: T1, Prostaglandin G/H synthase 2 (Homo sapiens, UniProt P35354); format: cell-based, CHO
T1 sequence (P35354 whole entry): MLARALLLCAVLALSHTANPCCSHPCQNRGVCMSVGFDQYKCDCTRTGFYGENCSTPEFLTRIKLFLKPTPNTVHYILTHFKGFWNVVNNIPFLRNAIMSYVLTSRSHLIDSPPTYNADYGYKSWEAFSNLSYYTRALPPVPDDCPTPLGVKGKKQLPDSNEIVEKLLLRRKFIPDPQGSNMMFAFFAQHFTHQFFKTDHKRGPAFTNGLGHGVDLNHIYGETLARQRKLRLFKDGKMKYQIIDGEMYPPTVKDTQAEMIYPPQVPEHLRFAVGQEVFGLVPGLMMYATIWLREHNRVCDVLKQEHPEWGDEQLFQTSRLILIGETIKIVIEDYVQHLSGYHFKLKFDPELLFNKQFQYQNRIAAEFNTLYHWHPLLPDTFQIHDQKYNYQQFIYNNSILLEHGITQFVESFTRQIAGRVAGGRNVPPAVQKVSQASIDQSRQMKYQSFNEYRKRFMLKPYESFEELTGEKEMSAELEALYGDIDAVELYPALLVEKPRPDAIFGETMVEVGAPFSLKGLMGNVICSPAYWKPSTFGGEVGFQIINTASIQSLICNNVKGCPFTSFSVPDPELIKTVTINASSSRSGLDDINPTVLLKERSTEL

Rattus norvegicus [3] = experiment: Compound was tested in vivo for efficacy in the rat paw edema assay upon oral administration.; format: functional
[4] = Compound was tested for plasma concentration in rats when administered at 20 mg/kg in 1% methocel at 1 hr; format: ADME, organism-based; set-up: dose 20 mg/kg; conditions: rat, read-out: Cmax
Rattus norvegicus [5] = organism: Rattus norvegicus; experiment: animal or person; conditions: po, read-out: Inhibition
in vivo = conditions: rat, plasma, 20 mg/kg
Description: Compound was tested for plasma concentration in rats when administered at 20 mg/kg in 1% methocel at 2 hr

Prostaglandin G/H synthase 1, sequence (P23219 whole entry): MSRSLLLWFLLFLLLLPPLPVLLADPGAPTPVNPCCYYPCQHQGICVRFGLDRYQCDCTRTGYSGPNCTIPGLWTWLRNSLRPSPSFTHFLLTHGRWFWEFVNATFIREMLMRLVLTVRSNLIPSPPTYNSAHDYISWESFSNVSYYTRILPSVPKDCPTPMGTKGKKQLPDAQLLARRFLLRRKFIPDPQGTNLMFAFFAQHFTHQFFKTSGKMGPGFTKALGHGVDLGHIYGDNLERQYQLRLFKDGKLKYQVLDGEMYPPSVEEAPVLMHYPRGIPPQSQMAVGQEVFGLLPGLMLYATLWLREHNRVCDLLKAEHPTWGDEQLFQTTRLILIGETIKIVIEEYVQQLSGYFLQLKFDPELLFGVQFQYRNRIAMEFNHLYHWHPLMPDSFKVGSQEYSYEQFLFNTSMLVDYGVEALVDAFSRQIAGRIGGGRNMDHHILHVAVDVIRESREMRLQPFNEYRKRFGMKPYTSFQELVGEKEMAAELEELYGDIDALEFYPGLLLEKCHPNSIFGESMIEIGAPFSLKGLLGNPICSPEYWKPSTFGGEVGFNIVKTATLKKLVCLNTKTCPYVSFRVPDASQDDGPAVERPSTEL

Structure (SMILES)	IC50 [1] [µM]	IC50 [2] [µM]	ED50 (Rattus norvegicus [3]) [mg/kg]	concentration at 1 h [4] [nM]	inhibition in vivo at 30 mg/kg (Rattus norvegicus [5]) [%]	concentration at 2 h (in vivo) [nM]
CS(=O)(=O)c1ccc(C2=C(c3ccccc3)C(=O)C2)cc1	4.4	0.11				
CC1(C)C(c2ccc(S(C)(=O)=O)cc2)=C(c2ccccc2)C1O (configuration not stated)	45	0.53				
CC1(C)C(c2ccc(S(C)(=O)=O)cc2)=C(c2ccccc2)/C1=N/O	34	0.061	4.2	1800		
CC1(C)C(=O)C(c2ccccc2)=C1c1ccc(S(C)(=O)=O)cc1			2.4	7500		
CS(=O)(=O)c1ccc(C2=C(c3ccccc3)C(=O)C23CCCC3)cc1	0.5	0.012				
C=C1CC(c2ccc(S(C)(=O)=O)cc2)=C1c1ccccc1	0.54		5.5	1000		
CC1(C)C(=O)C(c2ccc(F)cc2)=C1c1ccc(S(C)(=O)=O)cc1	0.37	0.005				
CS(=O)(=O)c1ccc(C2=C(c3ccc(F)cc3)CC3(CC3)C2)cc1	0.14				38	
C=C1C(c2ccccc2)=C(c2ccc(S(C)(=O)=O)cc2)C1(C)C	0.12	0.0022				
CC1(C)C(=O)C(c2ccc(S(C)(=O)=O)cc2)=C1c1ccccc1	2		2.7	8500		
CS(=O)(=O)c1ccc(C2=C(c3ccccc3)CC2)cc1		> 5				
CS(=O)(=O)c1ccc(-c2cc(Br)sc2-c2ccc(F)cc2)cc1 [DUP-697]			1.3			700
